≈ marks a conversion by molar mass, not a printed value.
Experiments:
THP-1 cells = experiment: Example D: LPS-triggered THP-1 cell death assay, acute/5-hour and chronic/48-hour; assay type: cell-based, Human; settings: for Viable cell percent change, Chronic/48-hour, Mean: 10 ng/ml LPS, 0.1 μM test compound; for activity relative to AC in the LPS-triggered THP-1 cell death assay, in words: 0.1 μM, 5-hour and 48-hour time points
Method: Compounds of the invention were tested at 0.1 μM versus AC in the LPS-triggered THP-1 cell death assay. Both acute/5-hour and chronic/48-hour phases of cell death were assessed. Compounds were screened in batches with DMSO as the negative control and AC as the high activity control.

[1] = system: Cryptococcus neoformans (serotype D); experiment: Example K: Cryptococcus neoformans (serotype D) growth inhibition; assay type: cell-based; settings: Cryptococcus deneoformans, OD of 48 hour reading, 37° C., tested 4 to 60 μM, XLfit
Method: Cryptococcus neoformans (serotype D) were plated in 96 well plates with 144 μl/well of 8×10e5 CFU/ml in YM growth medium. Diluted compounds were then added to each well with concentration ranged from 4 to 60 μM as final concentration in duplicates. The plates were inoculated at 37° C. for total of 48 hours. Two readings of OD at 600 nm were measured after 30 and 48 hour treatments.
• 1. Pick a single colony of Cryptococcus from the YM agar plate using the inoculum loop and inoculate into a 125 ml flask containing 25 ml of YM growth medium. • 2. Incubate at 37° C. with shaking at 220 rpm for 24 hours with loosen lid to allow air in and facilitates growth. • 3. Examine an aliquot of the culture under a microscope for yeast cell morphology and lack of bacterial contamination. • 4. Dilute the overnight culture with YM medium at 1:100 dilution and count the number of cells as 1×10^6 cfu/ml. • 5. Make a final concentration of cells suspension at 8×10^5 cfu/ml in YM medium. • 6. Plate 144 μl/well of 8×10^5 cfu/ml cell suspension on 96-well plates. Part-II: Cryptococcus Growth Inhibition Testing with Compounds • 1. From 10 mM DMSO stock solutions, make serial dilutions of compounds to 0.1, 0.2, 0.3, 0.5, 1.0 and 1.5 mM solution. • 2. Add 6 ul each of diluted compound solutions per well in duplicates. The final concentrations were 0, 4, 8, 12, 20, 40 and 60 micromolar. • 3. Incubated all plates at 37° C. overnight (30 hours) with 150 rpm shaking. • 4. Read absorbance at OD600 for each plate. • 5. Leave plates in 37° C. incubator for another day and read absorbance at OD600 again at 48 hours to ensure the inhibitory effect of the compounds. • 6. Calculated the % inhibition and IC50 of each compound against untreated cells.

[2] = system: 4T1 murine breast cancer cells; experiment: Example S: in vitro anticancer screen, 4T1 cells, Wst1; assay type: cell-based, mouse; settings: Mus musculus, 4T1, 18 h, 18 hr, Wst1; for viability at 1 µM: read-out: 4T1 1 μM, percent of cancer cell survival relative to vehicle treated cells; for viability at 5 µM: read-out: 4T1 5 μM, percent of cancer cell survival relative to vehicle treated cells
Method in brief: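 Read-out is Wst1 absorbance (450 nm, reference 630 nm) after roughly 2 hr dye incubation, giving percent cell survival versus vehicle. Before that, compounds at 1 μM or 5 μM were applied for 18 hr to 4T1 cells plated at 1×10^4 per well.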

[3] = system: PC3 human prostate cancer cells; experiment: Example S: in vitro anticancer screen, PC-3 cells, Wst1; assay type: cell-based; settings: Homo sapiens, PC-3, approximately 20 hours, Wst1, read-out: PC-3, percent of cancer cell survival relative to vehicle treated cells
Method in brief: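 Values give percent survival relative to vehicle, read by Wst1 absorbance (450/630 nm) after 2 h dye incubation, in triplicate. Cells were seeded at 2×10^4/well and treated about 20 h with compound at 0.4, 0.5 or 2.5 μM, depending on compound.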

[4] = system: PC-3 prostate cancer cells; experiment: Example T: sensitisation of PC-3 cells to doxorubicin, oxaliplatin, paclitaxel or vincristine, Wst1; assay type: cell-based, human; settings: PC-3 cells, 72 hours; for viability at 0.4 µM: compound 0.4 μM alone; for Doxorubicin 3.5 μM: percent cell survival / Oxaliplatin 100 μM: percent cell survival / Paclitaxel 50 μM: percent cell survival / Vincristine 100 nM: percent cell survival: chemotherapy agent alone normalized to 100%
[5] = system: Candida albicans strain 3153; experiment: Example H: Candida albicans growth inhibition (OD 600 nm); assay type: cell-based; settings: for MIC: Candida albicans, 3153, 24 hrs at 30° C., YPD, XLfit, read-out: MIC (uM) (99% of inhibition of fungal growth); for IC50: Candida albicans, 3153, read-out: IC50 (uM) (50% inhibition of fungal growth), 24 hrs at 30° C., YPD, XLfit
Method: A single colony of Candida Albicans was grown in 50 ml YPD broth overnight (19 hr). The cells were washed with PBS and 3.5×10^4 CFU/ml of C. Albicans (144 μl/well) in YPD medium were plated in 96 well plates. Test compounds were then added to each well with concentration ranged from 5 to 40 μM as final concentrations. The plates were incubated at 30° C. overnight (24 hrs) and OD at 600 nm was read at the end of incubation as an index of yeast cell density.
Part-I: Preparation of Candida albicans Cells • 1. One day prior to the inoculum preparation, pick a single colony of Candida albicans strain 3153 (lot #61794) from the Sabouraud Dextrose Agar plate using the inoculum loop and inoculate into a 250 mL flask containing 50 ml of YPD growth medium • 2. Incubate at 30° C. with shaking at 150 rpm for at least 18 hours with loosened lid to allow air in and facilitate growth. • 3. Examine an aliquot of the culture under a microscope for Candida cell morphology and lack of bacterial contamination; >95% of Candida cells should be blastoconidia. • 4. Transfer 25 ml the overnight culture into a 50-ml plastic disposable centrifuge tube, and centrifuge at 1000×g for 20 min. • 5. Discard the supernatant and wash the pellet with 4 ml of PBS at three times. Vortex and centrifuge, 1000×g for 10 min. • 6. After the third wash, dispense the pellet with 2 ml PBS and vortex. • 7. Make three 1:10 serial dilutions in sterile PBS (10^−1, 10^−2, 10^−3) from the 2 ml cell suspension using 15 ml culture tubes. The final volume in each tube is 5 ml. • 8. […] Make a 1:4 dilution in YPD medium from the 50-fold dilution of 10^−3 cell suspension for testing compounds. • The final C. albicans cell concentration for the test: 3.5×10^4 CFU/ml • 10. Plated 144 ul/well of the above dilution of cell on 96-well plates. Part-II: C. Albicans Growth Inhibition Testing with Compounds • 1. From 10 mM DMSO stock solutions, make serial dilutions of compounds to 0.13, 0.25, 0.40, 0.55, 0.75 and 1.0 mM solutions • 2. Add 6 ul each of diluted compound solutions per well in duplicates. The final concentrations were 0, 5, 10, 16, 22, 30 and 40 micromolar. • 3. Incubated all plates at 30 C for overnight (˜24 hours). • 4. Read absorbance at OD600 for each plate. • 5. Calculate the % inhibition of each compound against the DMSO treated cell.

S. cerevisiae = experiment: Example I: Saccharomyces cerevisiae growth inhibition (OD 600 nm); assay type: cell-based; settings: Saccharomyces cerevisiae, 18 hour incubation at 30° C., OD 600 nm, XLfit
Method: An overnight culture of S. cerevisiae was dilution in YPD broth to concentration of 40,000/ml and 150 μl/well was plated in 96 well plates. Compounds were then added to each well with concentration ranged from 4 to 50 μM as final concentration. The plates were inoculated at 30° C. overnight with shaking at 220 rpm and absorbance at 600 nm was read after 18 hour incubation.
• 1. One days prior to the inoculum preparation, pick a single colony of S. cerevisiae from the Sabouraud Dextrose Agar plate using the inoculum loop and inoculate into a 50 mL tube containing 10 ml of YPD growth medium • 2. Incubate at 30° C. with shaking at 220 rpm for 24 hours with loosen lid to allow air in and facilitates growth. • 3. Examine an aliquot of the culture under a microscope for yeast cell morphology and lack of bacterial contamination. • 4. Dilute the overnight culture with YPD medium at 1:30 dilution (70 ul to 2.1 ml) and count the number of cells as 4,230,000/ml. • 5. Mix 620 μl of 1:30 dilution and 64.4 ml YPD to make final concentration of 40,000/ml cells • 6. Plated 144 μl/well in four 96-well plates.
• 1. From 10 mM DMSO stock solutions, make serial dilutions of compounds to 0.1, 0.2, 0.3, 0.63 and 1.25 mM solutions • 2. Add 6 μl each of diluted compound solutions per well in duplicates. The final concentrations were 0, 4, 8, 12, 25 and 50 micromolar. • 3. Incubated all plates at 30 C for overnight (˜18 hours) with 220 rpm shaking. • 4. Read absorbance at OD600 for each plate on Spectra Max Plus plate reader. • 5. Calculate the % inhibition of each compound against the DMSO treated cell and plotted.

[6] = Homo sapiens, Wst1, vehicle = 100, read-out: No Chemo: percent cell survival
[7] = compound 0.4 μM + doxorubicin 3.5 μM
[8] = compound 0.4 μM + oxaliplatin 100 μM
[9] = compound 0.4 μM + paclitaxel 50 μM
[10] = compound 0.4 μM + vincristine 100 nM

Row | SMILES | MIC [5] [µM] | IC50 [5] [µM] | Viable cell percent change, Chronic/48-hour, Mean (THP-1 cells) [%] | activity relative to AC in the LPS-triggered THP-1 cell death assay, in words (THP-1 cells) | viability at 1 µM [2] [%] | viability at 5 µM [2] [%] | viability at 0.4 µM [3] [%] | viability at 0.4 µM [4, 6] [%] | Doxorubicin 3.5 μM: percent cell survival [4, 7] [%] | Oxaliplatin 100 μM: percent cell survival [4, 8] [%] | Paclitaxel 50 μM: percent cell survival [4, 9] [%] | Vincristine 100 nM: percent cell survival [4, 10] [%] | also measured
1 | COc1ccc(OCCCCCCCCNc2ccnc3ccccc23)cc1 [AD, N-[8-(4-Methoxyphenoxy)octyl]quinolin-4-amine] | – | – | 26.01 | equivalent activity to AC at both the 5-hour and 48-hour time points | 21.6 | 51.1 | 54.7 | 54.7 | 23.9 | 23.1 | 46.1 | 46.7 | IC50 ([1]; read-out: IC50 (concentration for 50% of inhibition)): 3.98 µM; MIC ([1]; read-out: MIC (concentration for maximum-99% of inhibition)): 45.2 µM (≈ 17.1 µg/mL)
2 | CCCCCCOCCCCCOCCCNc1ccnc2ccccc12 [BC, N-{3-[5-(Hexyloxy)pentyloxy]propyl}quinolin-4-amine] | 108 (≈ 40.1 µg/mL) | 45.7 | 6.40 | – | 96.9 | 47.2 | – | – | – | – | – | – | viability at 2.5 µM ([3]; 2.5 μM): 26%; viability at 2.5 µM ([4]; Homo sapiens, compound 2.5 μM alone, Wst1, vehicle = 100, read-out: No Chemo: percent cell survival): 26%; Doxorubicin 3.5 μM: percent cell survival ([4]; compound 2.5 μM + doxorubicin 3.5 μM): 32.6%; Oxaliplatin 100 μM: percent cell survival ([4]; compound 2.5 μM + oxaliplatin 100 μM): 32.3%; Paclitaxel 50 μM: percent cell survival ([4]; compound 2.5 μM + paclitaxel 50 μM): 29.8%; Vincristine 100 nM: percent cell survival ([4]; compound 2.5 μM + vincristine 100 nM): 28.9%
3 | CCCOCCOCCCCCCCCNc1ccnc2ccccc12 [BD, N-[8-(2-Propoxyethoxy)octyl]quinolin-4-amine] | 134 (≈ 48 µg/mL) | 37.5 | – | equivalent activity to AC at both the 5-hour and 48-hour time points | 25.5 | 27.7 | 29.3 | 29.3 | 66.1 | 61.3 | 28.4 | 33.3 | –
4 | COc1cccc(OCCCCCCCCNc2ccnc3ccccc23)c1 [BH, N-[8-(3-Methoxyphenoxy)octyl]quinolin-4-amine] | 30.1 (≈ 11.4 µg/mL) | 18.1 | 34.77 | equivalent activity to AC at both the 5-hour and 48-hour time points | 21 | 19.3 | 98.5 | 98.5 | 35.7 | 30.6 | 61 | 71.6 | –
5 | CCCCCCNC(=O)c1cccc(Nc2ccnc3ccccc23)c1 [BV, N-Hexyl-3-(quinolin-4-ylamino)benzamide] | – | – | 42.14 | – | – | – | 31.6 | – | – | – | – | – | IC50 (S. cerevisiae; read-out: IC50, uM (50% inhibition of fungal growth)): 12.3 µM; MIC (S. cerevisiae; read-out: MIC, uM (99% of inhibition of fungal growth)): 25 µM (≈ 8.69 µg/mL)
